Experimental data published in PMC5896380, “Selective imaging of cathepsin L in breast cancer by fluorescent activity-based probes” (Chemical Science, 2018).

Legend:
[1] = biological target: T1, cathepsin L (Homo sapiens, UniProt P07711); test: kobs/I of activity-based probes, cathepsin L; assay type: biochemical; details: Fig. 6A; pseudo-first order, probe at least 5-fold excess over cathepsin, 100 μM ACC substrate; pH 5.5, 37 °C; triplicate, SD below 20%
T1 construct: made in house
Experimental: (§1) All kinetic experiments were performed using fMax (Molecular Devices) and CLARIOStar (BMG LABTECH) spectrofluorimeters operating in kinetic mode using 96-well plates. ACC-labeled substrates were screened using 355 nm and 460 nm wavelengths (excitation and emission, respectively). […] The buffer was prepared at room temperature and the enzyme kinetic studies were performed at 37 °C.
(§2) For the kinetic studies, five recombinant human cathepsins (B, L, V, K and S) were expressed and purified and active site titrated using an E64 inhibitor. The kobs/I parameter was measured under pseudo-first order kinetic conditions, as described.[40] The cathepsin of interest was mixed with various concentrations of probe (at least 5-fold excess over cathepsin) and 100 μM ACC-fluorescence substrate. The experiments were repeated at least three times, and the results are presented as an average. The SDs were below 20%.

[2] = biological target: T2, cathepsin V (Homo sapiens, UniProt O60911); test: kobs/I of activity-based probes, cathepsin V; assay type: biochemical; details: Fig. 6A; pseudo-first order, probe at least 5-fold excess over cathepsin, 100 μM ACC substrate; pH 5.5, 37 °C; triplicate, SD below 20%
T2 construct: made in house
Experimental: as §1, §2

[3] = biological target: T3, cathepsin B (Homo sapiens, UniProt P07858); test: kobs/I of activity-based probes, cathepsin B; assay type: biochemical; details: Fig. 6A; pseudo-first order, probe at least 5-fold excess over cathepsin, 100 μM ACC substrate; pH 5.5, 37 °C; triplicate, SD below 20%
T3 construct: made in house
Experimental: as §1, §2

[4] = biological target: T4, cathepsin K (Homo sapiens, UniProt P43235); test: kobs/I of activity-based probes, cathepsin K; assay type: biochemical; details: Fig. 6A; pseudo-first order, probe at least 5-fold excess over cathepsin, 100 μM ACC substrate; pH 5.5, 37 °C; triplicate, SD below 20%
T4 construct: made in house
T4 sequence (P43235 115-329): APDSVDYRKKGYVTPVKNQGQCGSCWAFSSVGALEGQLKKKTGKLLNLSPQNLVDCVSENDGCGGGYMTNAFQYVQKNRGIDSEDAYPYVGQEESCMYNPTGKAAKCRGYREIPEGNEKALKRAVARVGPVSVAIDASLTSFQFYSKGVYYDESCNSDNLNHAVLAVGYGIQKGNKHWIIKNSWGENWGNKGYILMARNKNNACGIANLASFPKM
Experimental: as §1, §2

[5] = tested on: cathepsin L in MDA-MB-231 cells; test: Weighted colocalization of probe with cathepsin L antibody, confocal microscopy; assay type: cell-based, human; details: 1 μM probe
Experimental: Glass coverslips 15 mm in diameter were placed in 12-well plates and coated with poly-D-lysine (500 μL, 1 mg mL^–1 in water, Specialty Media) for 30 minutes. The poly-D-lysine was aspirated and the coverslips were washed twice with sterile water and air-dried. Next, low passage MDA-MB-231 cells in DMEM (100 000 cells per mL) were added to wells (1 mL per well) and allowed to attach for 2 hours. Cells were then treated with Cy5-labeled probes (1 μM) for 8 or 24 hours. The control cells were preincubated with E64d for 2 hours. After various incubation times, the medium was removed and the cells were gently washed twice with DPBS (1 mL each). The cells were then fixed with ice-cold methanol (500 μL per well) for 15 minutes at –20 °C. The methanol was gently removed and the fixed cells were washed twice with DPBS, blocked and permeabilized with 10% BSA in DPBS (with 0.5% Triton-X, v/v) for 1 hour at room temperature, and washed twice with 3% BSA in DPBS (with 0.5% Triton-X, v/v). Cathepsins L and B were detected by primary goat anti-hCathepsin L (R&D, AF952, 0.2 mg mL^–1, 1 : 200) and goat anti-hCathepsin B (R&D, AF953, 0.2 mg mL^–1, 1 : 80), respectively, in 3% BSA in DPBS (with 0.5% Triton-X, v/v) for 2 hours at room temperature. The antibodies were removed and the cells were washed twice with 3% BSA in DPBS (with 0.5% Triton-X, v/v) and labeled with a secondary antibody (Alexa Fluor™ 488 donkey anti-goat IgG (H + L), A11055, Invitrogen, 1 : 500) in DPBS (with 0.5% Triton-X, v/v) for 1 hour at room temperature. Next, the cells were washed twice with DPBS, and coverslips were mounted using Vectashield mounting medium fluorescence containing DAPI (Vector Lab. H-1000). In brief, a drop of mounting medium was placed on the Superfrost Plus microscope slide (Fisher Scientific, no. 12-550-15) and the coverslip was placed on the drop upside-down. […] DAPI was detected using the UV channel, the Cy5 probe was detected with a Cy5 filter (excitation at 647 nm (Axio Observer) or 633 nm (Zeiss LSM), emission at 667 nm; red channel) and cathepsins/secondary antibodies were read using FITC filters (excitation at 495 nm (Axio Observer) or 488 nm (Zeiss LSM), emission at 517 nm; […]; green channel). All images were acquired in .tiff format in MetaMorph software or in .lsm format in ZEN software and analyzed using ImageJ and ZEN software. […]
To quantify ABP/cathepsin colocalization we calculated weighted colocalization coefficients between the MP-cL3 ABP (red) and cathepsin L (green) and between the MP-cL3 ABP (red) and cathepsin B (green) using ZEN 2011 software. […]

[6] = tested on: cathepsins L and B in HEK293T cells; test: Cathepsin labeling by Cy5 probes in HEK293T cells, immunoblotting; assay type: cell-based, human; details: 1 μM probe, 0–18 hours
Experimental: Figure S3 Cathepsins labeling by two Cy5-tagged probes in HEK293T cells. Panel A. Cells (100,000/well/mL) were incubated with MP-cL3 (1µM) probe for 0-18 hours. Next, cells were harvested and subjected for Western blotting. MP-cL3 probe is very selective toward cathepsin L even after 18 hours of incubation (only residual cathepsin B activity is detected).
MDA-MB-231, thus mostly heavy chain of cathepsin L is labeled. Panel B and Panel C. Cells (100,000/well/mL) were incubated with pan-specific MP-pc1 (1µ M) probe for 0-18 hours. Next, cells were harvested and subjected […]
(1 picture or pasted object on this page, not shown here)

T1 sequence (P07711 114-333): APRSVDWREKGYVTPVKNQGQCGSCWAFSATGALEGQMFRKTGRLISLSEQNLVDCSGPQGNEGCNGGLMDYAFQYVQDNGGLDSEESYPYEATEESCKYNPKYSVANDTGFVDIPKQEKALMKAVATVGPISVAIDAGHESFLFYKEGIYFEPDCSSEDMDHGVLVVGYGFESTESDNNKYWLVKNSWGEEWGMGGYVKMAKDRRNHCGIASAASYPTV
T2 sequence (O60911 114-334): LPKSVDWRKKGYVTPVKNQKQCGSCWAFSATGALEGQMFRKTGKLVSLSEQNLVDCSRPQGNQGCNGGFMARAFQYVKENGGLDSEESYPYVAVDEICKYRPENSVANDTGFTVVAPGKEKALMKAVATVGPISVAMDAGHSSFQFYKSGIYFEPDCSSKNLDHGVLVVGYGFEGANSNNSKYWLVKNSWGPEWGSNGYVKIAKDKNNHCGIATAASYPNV

## Cy5-6-ahx-His-DThr-Phe(F5)-Cys(Bzl)-AOMK [MP-cL3]
[1]
  kobs/I Cath-L: 322,000 M^-1s^-1
[2]
  kobs/I Cath-V: 380 M⁻¹ s⁻¹
[3]
  kobs/I Cath-B: 780 M⁻¹ s⁻¹
[4]
  kobs/I Cath-K: < 200 M⁻¹ s⁻¹
[5]; CatL ab (8h), single cells analysis, 98 single cells
  weighted colocalization coefficient: 0.928
[5]; CatL ab (8h), whole pictures analysis, 8 images
  weighted colocalization coefficient: 0.937
[5]; CatL ab (24h), single cells analysis, 59 single cells
  weighted colocalization coefficient: 0.695
[5]; CatL ab (24h), whole pictures analysis, 8 images
  weighted colocalization coefficient: 0.725
[6]
  cathepsins labeled in HEK293T cells: bound only cathepsin L
